Data on one compound can be found in patent US11746087B1, “C4-carboxylic acid-substituted tryptamine derivatives and methods of using” (priority 2022, dated 2023).

Data set [1] concerns the target T1, 5-HT2A receptor (Mus musculus, UniProt P35363).
T1 construct: 8-week old C57BL/6-Elite male and female mice were obtained from Charles River; tissue Charles River; host or cells: living C57BL/6-Elite mice (neuronal receptor, in vivo)
Kind of data set: Drug-induced Head Twitch Response (HTR). The class given is in vivo. Conditions: C57BL/6 mice; 1 mg/kg i.p.; 15-to-30-minute window after administration.

In data set [2] the target is OPRD1 (Homo sapiens, UniProt P41143). Kind of data set: EFC-based cAMP secondary messenger assay, antagonist mode. The class given is cell-based.
For data set [3], the target named is HTR2B (5-HT2B) (Homo sapiens, UniProt P41595). The data set is described as follows: Calcium secondary messenger assay, agonist mode. The class given is cell-based.
Data set [4] concerns the target NMDAR (Homo sapiens, UniProt Q05586+Q13224). Kind of data set: Ion channel assay (FLIPR membrane potential), blocker. The class given is cell-based.
In data set [5] the target is T2, ADRA1A (Homo sapiens, UniProt P35348).
T2 sequence (P35348 1-466): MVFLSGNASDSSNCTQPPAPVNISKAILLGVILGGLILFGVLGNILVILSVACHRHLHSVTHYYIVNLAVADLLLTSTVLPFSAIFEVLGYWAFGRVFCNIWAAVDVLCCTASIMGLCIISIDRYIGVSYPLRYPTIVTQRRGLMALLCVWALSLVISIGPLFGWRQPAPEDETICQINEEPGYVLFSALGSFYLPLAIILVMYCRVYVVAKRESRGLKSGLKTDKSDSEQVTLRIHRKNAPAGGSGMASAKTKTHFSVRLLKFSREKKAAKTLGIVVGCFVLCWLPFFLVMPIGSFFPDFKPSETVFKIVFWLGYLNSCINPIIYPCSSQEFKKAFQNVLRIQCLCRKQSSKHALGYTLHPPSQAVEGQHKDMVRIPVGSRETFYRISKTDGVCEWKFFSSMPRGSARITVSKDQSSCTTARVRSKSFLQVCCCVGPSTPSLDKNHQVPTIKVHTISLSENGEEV
The data set is described as follows: Calcium secondary messenger assay, antagonist mode. The class given is cell-based.

The target in data set [6] is T3, HTR3A (5-HT3A) (Homo sapiens, UniProt P46098).
T3 sequence (P46098 24-478): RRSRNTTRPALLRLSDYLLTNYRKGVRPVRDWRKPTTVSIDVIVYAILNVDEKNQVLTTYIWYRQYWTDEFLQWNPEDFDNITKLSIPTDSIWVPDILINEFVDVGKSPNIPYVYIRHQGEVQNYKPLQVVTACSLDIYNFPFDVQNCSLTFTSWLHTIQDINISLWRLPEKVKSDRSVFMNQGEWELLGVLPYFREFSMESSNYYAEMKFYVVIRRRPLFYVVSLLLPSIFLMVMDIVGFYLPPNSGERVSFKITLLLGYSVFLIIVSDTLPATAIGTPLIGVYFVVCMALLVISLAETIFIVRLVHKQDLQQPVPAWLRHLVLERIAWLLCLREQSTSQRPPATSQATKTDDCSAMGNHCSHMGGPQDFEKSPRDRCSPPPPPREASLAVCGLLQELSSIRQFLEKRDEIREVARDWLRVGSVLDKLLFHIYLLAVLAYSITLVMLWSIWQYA
The data set is described as follows: Ion channel assay (FLIPR membrane potential), opener. The class given is cell-based.

For data set [7], the target named is T4, CHRM1 (Homo sapiens, UniProt P11229).
T4 sequence (P11229 1-460): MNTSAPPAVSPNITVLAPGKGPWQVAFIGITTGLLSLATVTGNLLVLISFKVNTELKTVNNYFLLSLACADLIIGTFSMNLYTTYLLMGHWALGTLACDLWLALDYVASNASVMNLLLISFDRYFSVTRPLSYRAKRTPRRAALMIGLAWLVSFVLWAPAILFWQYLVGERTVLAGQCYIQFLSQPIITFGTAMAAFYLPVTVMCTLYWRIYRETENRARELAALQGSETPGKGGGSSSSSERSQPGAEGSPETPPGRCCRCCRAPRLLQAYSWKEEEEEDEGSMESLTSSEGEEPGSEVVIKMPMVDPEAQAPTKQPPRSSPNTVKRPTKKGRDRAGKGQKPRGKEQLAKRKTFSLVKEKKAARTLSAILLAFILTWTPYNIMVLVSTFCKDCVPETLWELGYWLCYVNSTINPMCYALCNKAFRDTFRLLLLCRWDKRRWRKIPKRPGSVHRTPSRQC
The data set is described as follows: cell-based. Conditions: CHRM1; GPCR; ANT (antagonist).

The target of data set [8] is DAT (Homo sapiens, UniProt Q01959). Kind of data set: Neurotransmitter transporter uptake assay, blocker. The class given is cell-based.
Data set [9] can be described thus: Mouse PK study (IV and PO), plasma parent compound and psilocin by LC-MS/MS. The class given is in vivo. Conditions: mouse. The text has this: Briefly, the procedure was as follows. […] 19, 2022.
Data set [10] addresses HTR1B (5-HTR1B) (Homo sapiens, UniProt P28222). Kind of data set: EFC-based cAMP secondary messenger assay, antagonist mode. The class given is cell-based.

Chain of DAT (Q01959 whole entry): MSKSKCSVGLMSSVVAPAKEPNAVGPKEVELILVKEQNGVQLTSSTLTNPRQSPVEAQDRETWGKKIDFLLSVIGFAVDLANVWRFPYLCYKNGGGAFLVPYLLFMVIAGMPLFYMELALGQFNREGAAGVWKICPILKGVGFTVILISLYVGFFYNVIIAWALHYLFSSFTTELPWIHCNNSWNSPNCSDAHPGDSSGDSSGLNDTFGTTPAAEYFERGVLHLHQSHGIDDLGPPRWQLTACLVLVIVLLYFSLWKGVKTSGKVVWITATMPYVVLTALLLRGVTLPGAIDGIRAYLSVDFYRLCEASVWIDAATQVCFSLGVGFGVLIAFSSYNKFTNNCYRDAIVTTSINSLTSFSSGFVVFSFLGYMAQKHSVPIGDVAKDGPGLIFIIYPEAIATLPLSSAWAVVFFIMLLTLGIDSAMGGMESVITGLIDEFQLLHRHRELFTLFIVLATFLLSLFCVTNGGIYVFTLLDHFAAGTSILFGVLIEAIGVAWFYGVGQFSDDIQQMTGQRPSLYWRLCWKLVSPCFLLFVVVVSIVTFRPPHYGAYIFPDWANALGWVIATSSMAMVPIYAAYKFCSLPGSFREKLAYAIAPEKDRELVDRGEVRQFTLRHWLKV
Chain of HTR2B (5-HT2B) (P41595 whole entry): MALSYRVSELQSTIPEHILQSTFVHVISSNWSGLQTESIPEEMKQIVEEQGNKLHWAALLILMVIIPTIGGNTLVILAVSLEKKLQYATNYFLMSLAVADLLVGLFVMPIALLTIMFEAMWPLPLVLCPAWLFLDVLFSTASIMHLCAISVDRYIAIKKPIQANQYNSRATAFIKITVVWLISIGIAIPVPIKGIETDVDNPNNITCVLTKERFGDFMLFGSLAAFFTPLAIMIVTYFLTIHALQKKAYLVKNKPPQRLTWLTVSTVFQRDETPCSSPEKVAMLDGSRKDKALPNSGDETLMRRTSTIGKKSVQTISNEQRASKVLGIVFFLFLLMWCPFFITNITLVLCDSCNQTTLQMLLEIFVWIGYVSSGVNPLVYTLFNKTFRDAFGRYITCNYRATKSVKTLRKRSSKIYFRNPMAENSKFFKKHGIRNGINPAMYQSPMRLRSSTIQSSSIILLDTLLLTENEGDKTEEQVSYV
Chain of NMDAR (Q13224 27-1484, other chains not shown): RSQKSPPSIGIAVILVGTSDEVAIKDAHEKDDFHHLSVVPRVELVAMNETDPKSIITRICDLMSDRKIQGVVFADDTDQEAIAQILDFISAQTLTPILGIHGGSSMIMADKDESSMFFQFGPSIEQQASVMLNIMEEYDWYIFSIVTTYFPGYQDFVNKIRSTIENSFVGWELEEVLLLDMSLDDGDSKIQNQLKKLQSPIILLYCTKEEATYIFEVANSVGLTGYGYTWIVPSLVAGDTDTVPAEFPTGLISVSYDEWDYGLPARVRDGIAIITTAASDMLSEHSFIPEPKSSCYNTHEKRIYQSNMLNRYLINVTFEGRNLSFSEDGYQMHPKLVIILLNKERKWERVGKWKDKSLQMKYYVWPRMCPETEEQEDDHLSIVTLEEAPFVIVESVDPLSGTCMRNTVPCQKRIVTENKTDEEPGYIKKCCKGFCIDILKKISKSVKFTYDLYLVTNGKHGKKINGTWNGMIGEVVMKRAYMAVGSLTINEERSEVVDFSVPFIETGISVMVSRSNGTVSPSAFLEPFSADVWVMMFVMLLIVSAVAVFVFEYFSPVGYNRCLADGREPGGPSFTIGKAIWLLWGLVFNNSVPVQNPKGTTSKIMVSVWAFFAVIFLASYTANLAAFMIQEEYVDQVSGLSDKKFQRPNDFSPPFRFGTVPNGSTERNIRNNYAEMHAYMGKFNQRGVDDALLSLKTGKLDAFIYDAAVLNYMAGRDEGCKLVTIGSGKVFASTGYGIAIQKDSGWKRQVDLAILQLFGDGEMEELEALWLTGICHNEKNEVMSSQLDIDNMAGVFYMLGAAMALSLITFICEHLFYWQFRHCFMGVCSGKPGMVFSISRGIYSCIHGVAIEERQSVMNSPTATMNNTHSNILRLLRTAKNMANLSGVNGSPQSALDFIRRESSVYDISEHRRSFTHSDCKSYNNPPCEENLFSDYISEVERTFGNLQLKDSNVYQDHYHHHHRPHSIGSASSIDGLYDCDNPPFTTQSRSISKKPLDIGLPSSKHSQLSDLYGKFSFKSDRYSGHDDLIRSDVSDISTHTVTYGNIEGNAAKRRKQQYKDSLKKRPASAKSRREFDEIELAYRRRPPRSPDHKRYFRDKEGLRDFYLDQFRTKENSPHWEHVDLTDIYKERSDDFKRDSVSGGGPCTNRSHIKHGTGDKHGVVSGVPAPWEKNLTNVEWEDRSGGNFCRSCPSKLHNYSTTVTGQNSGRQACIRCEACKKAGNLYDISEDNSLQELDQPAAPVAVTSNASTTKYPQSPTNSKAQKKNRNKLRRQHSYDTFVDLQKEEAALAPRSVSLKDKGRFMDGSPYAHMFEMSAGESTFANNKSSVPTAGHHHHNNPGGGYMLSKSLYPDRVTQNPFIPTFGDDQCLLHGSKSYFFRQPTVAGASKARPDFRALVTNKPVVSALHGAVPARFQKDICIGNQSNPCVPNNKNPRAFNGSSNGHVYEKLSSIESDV
T1 sequence (P35363 whole entry): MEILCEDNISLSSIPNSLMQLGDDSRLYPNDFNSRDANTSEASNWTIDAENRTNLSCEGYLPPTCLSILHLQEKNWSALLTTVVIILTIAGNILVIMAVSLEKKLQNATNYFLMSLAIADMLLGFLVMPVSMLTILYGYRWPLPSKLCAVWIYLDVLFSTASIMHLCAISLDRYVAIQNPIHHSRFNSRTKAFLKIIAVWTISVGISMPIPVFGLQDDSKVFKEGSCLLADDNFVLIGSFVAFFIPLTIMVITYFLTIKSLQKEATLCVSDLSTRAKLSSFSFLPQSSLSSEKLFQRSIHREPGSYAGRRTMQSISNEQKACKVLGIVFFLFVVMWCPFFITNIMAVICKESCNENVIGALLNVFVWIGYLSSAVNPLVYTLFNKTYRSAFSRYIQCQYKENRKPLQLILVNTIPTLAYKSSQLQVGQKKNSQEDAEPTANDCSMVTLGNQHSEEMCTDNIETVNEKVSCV
Chain of OPRD1 (P41143 whole entry): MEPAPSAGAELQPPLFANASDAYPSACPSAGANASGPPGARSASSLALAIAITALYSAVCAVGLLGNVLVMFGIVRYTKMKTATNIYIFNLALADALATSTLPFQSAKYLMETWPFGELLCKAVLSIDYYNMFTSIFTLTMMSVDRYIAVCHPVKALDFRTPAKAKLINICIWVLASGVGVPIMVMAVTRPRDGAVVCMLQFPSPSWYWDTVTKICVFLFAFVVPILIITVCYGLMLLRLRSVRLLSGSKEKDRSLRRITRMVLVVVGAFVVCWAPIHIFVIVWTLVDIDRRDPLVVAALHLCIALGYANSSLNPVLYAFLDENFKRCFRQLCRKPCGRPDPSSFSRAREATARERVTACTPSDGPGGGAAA
Chain of HTR1B (5-HTR1B) (P28222 whole entry): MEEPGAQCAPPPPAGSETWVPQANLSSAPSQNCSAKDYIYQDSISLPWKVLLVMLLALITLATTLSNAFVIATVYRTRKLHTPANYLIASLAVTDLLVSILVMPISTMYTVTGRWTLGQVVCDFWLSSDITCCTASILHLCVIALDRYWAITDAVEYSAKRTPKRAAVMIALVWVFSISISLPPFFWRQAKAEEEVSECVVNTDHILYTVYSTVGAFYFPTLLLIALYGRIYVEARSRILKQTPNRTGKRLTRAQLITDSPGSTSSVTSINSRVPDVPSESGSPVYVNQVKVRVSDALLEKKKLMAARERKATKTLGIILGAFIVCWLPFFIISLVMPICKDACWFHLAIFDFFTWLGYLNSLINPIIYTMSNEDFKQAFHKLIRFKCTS

In general, IC50 refers to the concentration that gives 50% inhibition. A word on the EC50: it is the concentration giving half of the maximal effect. For `CN(C)CCc1c[nH]c2cccc(OC(=O)c3c(F)c(F)c(F)c(F)c3F)c12` [C(VI)], the “Head Twitch Response (HTR) incidence relative to vehicle” value in data set [1] was “Elevated incidences of HTR”. The half-maximal inhibitory concentration (IC50) is more than 100 µM in data set [2]; more than 100 µM in data set [4]; 26.9 µM in data set [5]; more than 100 µM in data set [7]; more than 100 µM in data set [8]; more than 100 µM in [10]. Also, the EC50 in data set [3] and in [6] was more than 100 µM each time. The “Plasma concentration of psilocin” value was “BLQ” in [9] (C(VI) 1 mg/kg i.v., 8 h); “BLQ and No Peak” in [9] (C(VI) 1 mg/kg oral, 24 h, 1 mg/kg); “BLQ and No Peak” in data set [9] (C(VI) 3 mg/kg oral, 24 h, 3 mg/kg); “BLQ” in data set [9] (C(VI) 10 mg/kg oral, 24 h). Also, the “detectability of parent compound in plasma, any dose” value in [9] (i.v. and oral, any animals at any dose) is on record as “not detectable in any animals at any dose”.
